Assay: xn = mol fraction of the nth substance listed

CC(=O)CC(C)(C)O + CC(C)O
viscosity [mPa·s], 100 kPa
Conditions | x2 = 0.1 | x2 = 0.2 | x2 = 0.3 | x2 = 0.4 | x2 = 0.5 | x2 = 0.6 | x2 = 0.7 | x2 = 0.8 | x2 = 0.9
303.15 K | 2.39 | 2.29 | 2.19 | 2.09 | 2 | 1.91 | 1.84 | 1.78 | 1.75
323.15 K | 1.5 | 1.43 | 1.36 | 1.29 | 1.23 | 1.18 | 1.12 | 1.08 | 1.04

CCN(CC)S(C)(=O)=O + CC(C)O
303.15 K, 101.33 kPa
Conditions | viscosity [mPa·s]
x1 = 0.068 | 15930
x1 = 0.1441 | 15440
x1 = 0.2157 | 15650
x1 = 0.2582 | 15980
x1 = 0.3391 | 16860
x1 = 0.4088 | 17920
x1 = 0.4524 | 18630
x1 = 0.5136 | 19840
x1 = 0.5952 | 21830
x1 = 0.6857 | 24330
x1 = 0.7556 | 26840
x1 = 0.8417 | 30570
x1 = 0.9259 | 35180

CC1(C)OCC(CO)O1 (configuration not stated) + CC(O)CO
viscosity [mPa·s], 101 kPa
Conditions | x1 = 0.1024 | x1 = 0.2011 | x1 = 0.2987 | x1 = 0.4005 | x1 = 0.5 | x1 = 0.6041 | x1 = 0.6998 | x1 = 0.8002 | x1 = 0.9017
298.15 K | 40.23 | 35.6 | 31.55 | 27.24 | 22.86 | 19.38 | 16.97 | 14.5 | 12.03
308.15 K | 23.19 | 20.46 | 18.03 | 15.53 | 13.03 | 11.25 | 10.26 | 9.248 | 7.738
318.15 K | 14.4 | 12.56 | 11.33 | 9.726 | 8.135 | 7.174 | 6.614 | 6.244 | 5.465

CCOC(=O)C(C)O (configuration not stated) + CCC(C)=O
101 kPa
Conditions | viscosity [mPa·s]
298.15 K, x1 = 0.6999 | 1.375
308.15 K, x1 = 0.8 | 1.345
308.15 K, x1 = 0.9001 | 1.595
318.15 K, x1 = 0.1999 | 0.4415
